Experimental data taken from US6964966B2, “Generation triple-targeting, chiral, broad-spectrum antimicrobial 7-substituted piperidino-quinolone carboxylic acid derivatives, their preparation, compositions and use as medicaments” (Wockhardt Limited, priority 2001, dated 2005).
Values after ≈ are worked out from the molar mass of the structure shown. Read-outs that look alike come from different tables or passages of the source.

What was measured:
[1] = test system: Fluoroquinolone-Resistant Strains; experiment: In-vitro antimicrobial test, MIC by agar dilution (NCCLS): fluoroquinolone-resistant strains (Table 18); format: cell-based
Method: (§1) The test method was in accordance with the standard NCCLS protocol (Methods for Dilution Antimicrobial Susceptibility Tests for Bacteria that grow Aerobicially, Approved Standards, M7-A5, Fifth Edition, January 2000).
(§2) The antibacterial activities (minimum inhibitory concentration: MIC, mcg/ml) were determined by using the two-fold serial agar dilution method recommended by NCCLS. The media used for preculture and main culture were Tryptic Soya broth (Difco) and Mueller Hinton medium (Difco), respectively. The Mueller Hinton agar was supplemented with 5% sheep blood for streptococci. Overnight cultures were diluted with buffered saline (pH 7.2) to the final cell density of 5×10^6-10^7 CFU/ml, and each bacterial suspension was applied with a replicator (Denley's multipoint inoculator, UK) onto a series of Mueller-Hinton agar plates containing antibacterial agents at various concentrations. Final inoculum was approximately 10^4 CFU/spot. The plates were incubated for 18 hrs at 37° C. The MIC was defined as the lowest concentration of an antibacterial agent that inhibits the development of visible microbial growth on agar.

[2] = test system: Fluoroquinolone Sensitive Strains; experiment: In-vitro antimicrobial test, MIC by two-fold serial agar dilution (NCCLS): fluoroquinolone sensitive strains (Table 17); format: cell-based
Method: as §1, §2

[3] = test system: Trovafloxacin-Resistant and Vancomycin-Resistant Enterococci; experiment: In-vitro antimicrobial test, MIC by agar dilution (NCCLS): enterococci (Table 19); format: cell-based; conditions: for MIC: read-out: MIC, V R E 336
Source text: The comparative antimicrobial activity of representative compounds of the invention and reference compounds against various sensitive and resistant microorganisms is given in Tables 17 to 20. The test method was in accordance with the standard NCCLS protocol (Methods for Dilution Antimicrobial Susceptibility Tests for Bacteria that grow Aerobicially, Approved Standards, M7-A5, Fifth Edition, January 2000).
as §2

[4] = Phototoxicity, oral dose and UVA exposure, mice; conditions: UVA 4 hours for 4 consecutive days, dose causing ear erythema and oedema
Method: The stock solutions for different doses were prepared freshly on the day of experimentation. Appropriate concentration of each dose was chosen to give a constant dosage volume of 0.3-0.4 ml/20 g body weight of mouse. The treated mice were exposed to UVA light source immediately after dosing for 4 hours and for 4 consecutive days. The mean light intensity in the UVA chamber was adjusted to 0.9-1.2 mW/cm^2. The total irradiation dose was approximately 18 Joules/cm^2/day. A phototoxic dose is one which causes ear erythema and oeadema.

[5] = test system: MRSA 5027; format: cell-based
[6] = test system: Multidrug-Resistant (MDR) Pneumococcal Infections; experiment: In-vivo antimicrobial test: systemic infection model (mouse septicemia), oral ED50 (Table 22); parameters: species or system Swiss mice; conditions: oral 1 hour and 5 hours post-infection, survival on day 7, strain resistant to β-lactams, macrolides and fluoroquinolones
Method: The in vivo efficacy was studied through mouse septicemia model of infection in Swiss male and female mice (4 weeks old, 20+2 g weight) using 6 animals in each group. Infective organisms were inoculated intraperitonially. Compound were administered by oral route 1 hour and 5 hours post-infection. […] Appropriate comparators were included in the study.

[7] = test system: V79 (Chinese Hamster Lung); experiment: Cytotoxicity test (Alamar blue), V79 cells (Table 23); format: cell-based; conditions: minimum drug concentration inhibiting Alamar blue color change, 3 hrs drug exposure, then 96 hrs incubation
Method: (§3) Compounds were evaluated for their cytotoxic potential against two […] viz. […] Freshly grown cells were distributed in microtiter plates at a cell density of 10^5-10^6 cells/well and allowed to adhere and form monolayer by incubating the microtiter plate at 37° C. for 24 hrs. […] Following 3 hrs. of drug exposure, cells were washed with D-MEM and incubated further for 96 hrs. Cytotoxic effects of drugs were monitored through daily microscopic observation and by ascertaining the metabolic status through redox indicator Alamar blue. Healthy actively metabolising cells bring about colour change of Alamar blue from blue to pink within an overnight incubation. Cytotoxic drugs inhibit this reaction resulting into blue coloured wells. Minimum drug concentration inhibiting Alamar blue color change i.e. resulting into blue coloured wells for a given drug is considered cytotoxic concentration.

[8] = test system: J 744 (mouse macrophage); experiment: Cytotoxicity test (Alamar blue), J 744 cells (Table 23); format: cell-based; conditions: minimum drug concentration inhibiting Alamar blue color change; 3 hrs drug exposure, then 96 hrs incubation; J 744 mouse macrophage cells
Method: as §3

[9] = test system: Clinical Isolate MRSA 5076 with Mutations in DNA Gyrase and Topoisomerase IV as well as bearing an Efflux Pump; format: cell-based
Method: as §1, §2

[10] = vancomycin-resistant Enterococcus faecium 336
[11] = Enterococcus faecalis, ATCC29212, E. faecalis ATCC 29212, read-out: MIC, E. faecalis ATCC 29212

Question: Which “MIC, Cipro^R S. mitis 938” value [1] does the source give for `Cc1c(N2CCC(O)C(C)C2)c(F)cc2c(=O)c(C(=O)O)cn(C3CC3)c12` (mixture of isomers) [Compound 84, cis/trans-1-Cyclopropyl-6-fluoro-8-methyl-7-(4-hydroxy-3-methyl-1-piperidinyl)-1,4-dihydro-4-oxo-quinoline-3-carboxylic acid] here?
Answer: The value was 0.4 µg/mL.

Question: And the “MIC, Cipro^R S. sanguis 941” value [1]?
Answer: Its value is 0.4 µg/mL.

Question: And the “MIC, FQ^R S. pneumoniae 718” value [1]?
Answer: Its value is 0.8 µg/mL.

Question: What about the “MIC, MRSA 032” value [1] of the same compound?
Answer: Its value is 0.2 µg/mL.

Question: And the “MIC, E. coli ATCC 25922” value [2]?
Answer: Its value is 0.2 µg/mL.

Question: And the “MIC, E. faecalis ATCC 29212” value ([2]; E. faecalis ATCC 29212)?
Answer: Its value is 0.05 µg/mL.

Question: What about the “MIC, MSSA ATCC 25923” value ([2]; MSSA ATCC 25923) of the same compound?
Answer: The value was 3 ng/mL.

Question: What about the “MIC, P. aeruginosa 27853” value ([2]; P. aeruginosa 27853) of the same compound?
Answer: The value was 3.12 µg/mL.

Question: What about the “MIC, S. pneumoniae ATCC 49619” value ([2]; S. pneumoniae ATCC 49619) of the same compound?
Answer: The value was 0.025 µg/mL.

Question: And the “MIC, S. sanguis ATCC 10556” value ([2]; S. sanguis ATCC 10556 (Viridans Streptococci))?
Answer: Its value is 0.05 µg/mL.

Question: What about the “MIC, Trova-Resist MRSE 110” value ([3]; Trovafloxacin-resistant methicillin-resistant S. epidermidis 110) of the same compound?
Answer: The value was 0.4 µg/mL.

Question: What about the “MIC, V R E 336” value [3, 10] of the same compound?
Answer: The value was 3.12 µg/mL.

Question: For `COc1c(N2CCC(N)C(C)(C)C2)c(F)cc2c(=O)c(C(=O)O)cn(C3CC3)c12` (racemic) [Compound 18, (±)-1-Cyclopropyl-6-fluoro-1,4-dihydro-8-mehtoxy-7-(4-amino-3,3-dimethyl-1-piperidinyl)-4-oxo-quinoline-3-carboxylic acid], which “MIC, Cipro^R S. sanguis 941” value [1] is on record?
Answer: The value was 0.4 µg/mL (≈ 0.991 µM).

Question: And the “MIC, FQ^R S. pneumoniae 718” value [1]?
Answer: Its value is 0.8 µg/mL (≈ 1.98 µM).

Question: And the “MIC, MRSA 032” value [1]?
Answer: Its value is 0.8 µg/mL (≈ 1.98 µM).

Question: What about the “MIC, E. coli ATCC 25922” value [2] of the same compound?
Answer: The value was 0.2 µg/mL (≈ 0.496 µM).

Question: And the phototoxic dose [4]?
Answer: Its phototoxic dose is “greater than 500 mg/kg”.

Question: And the “MIC against MRSA 5027 after 10 passage in drug containing medium” value ([5]; after 10 passages)?
Answer: Its value is 0.4 µg/mL (≈ 0.991 µM).

Question: And the “MIC against MRSA 5027, initially” value ([5]; before passages in drug-containing medium)?
Answer: Its value is 0.4 µg/mL (≈ 0.991 µM).

Question: What about the “ED50 p.o. MDR S. pneumoniae 718” value [6] of the same compound?
Answer: The value was 30 mg/kg.

Question: What does the source list for `Cc1c(N2CC[C@H](O)[C@H](C)C2)c(F)cc2c(=O)c(C(=O)O)cn(C3CC3)c12` (relative stereo) [Compound 85, cis-1-Cyclopropyl-6-fluoro-8-methyl-7-(4-hydroxy-3-methyl-1-piperidinyl)-1,4-dihydro-4-oxo-quinoline-3-carboxylic acid]?
Answer: Cytotoxic concentration, V 79 CHL [7]: >1000 µg/mL; MIC [2, 11]: 0.1 µg/mL (≈ 0.267 µM); MIC ([2]; S. sanguis ATCC 10556 (Viridans Streptococci), read-out: MIC, S. sanguis ATCC 10556): 0.025 µg/mL (≈ 0.0668 µM); MIC [3, 10]: 3.12 µg/mL (≈ 8.33 µM); Cytotoxic concentration, J 744 Macrophage [8]: >1000 µg/mL

Question: For `Cc1c(N2CC[C@@H](O)[C@H](C)C2)c(F)cc2c(=O)c(C(=O)O)cn(C3CC3)c12` (relative stereo) [Compound 86, trans-1-Cyclopropyl-6-fluoro-8-methyl-7-(4-hydroxy-3-methyl-1-piperidinyl)-1,4-dihydro-4-oxo-quinoline-3-carboxylic acid], which melting point is on record?
Answer: The melting point was 214 to 216 °C.

Question: And the “Cytotoxic concentration, V 79 CHL” value [7]?
Answer: Its value is over 1000 µg/mL.

Question: And the MIC [2, 11]?
Answer: The MIC was 0.05 µg/mL (≈ 0.134 µM).

Question: And the MIC [3, 10]?
Answer: The MIC was 3.12 µg/mL (≈ 8.33 µM).

Question: And the “MIC, MRSA 5076 + efflux inhibitor reserpine” value [9]?
Answer: Its value is 0.2 µg/mL.

Question: And the “Cytotoxic concentration, J 744 Macrophage” value [8]?
Answer: The value was over 1000 µg/mL.

Question: Which results are given for `COc1c(N2CCC(N)C(C)(C)C2)c(F)cc2c(=O)c(C(=O)O)cn(C3CC3)c12` (single isomer, unassigned; (+)) [Compound 19, (+)-1-Cyclopropyl-6-fluoro-1,4-dihydro-8-mehtoxy-7-(4-amino-3,3-dimethyl-1-piperidinyl)-4-oxo-quinoline-3-carboxylic acid]?
Answer: MIC, Cipro^R S. mitis 938 [1]: 0.8 µg/mL (≈ 1.98 µM); MIC, Cipro^R S. sanguis 941 [1]: 0.2 µg/mL (≈ 0.496 µM); MIC, FQ^R S. pneumoniae 718 [1]: 0.4 µg/mL (≈ 0.991 µM); MIC, MRSA 032 [1]: 0.8 µg/mL (≈ 1.98 µM); MIC, E. coli ATCC 25922 [2]: 0.2 µg/mL (≈ 0.496 µM); phototoxic dose [4]: greater than 500 mg/kg; ED50 p.o. MDR S. pneumoniae 718 [6]: 20 mg/kg

Question: With `COc1c(N2CCC(N)C(C)(C)C2)c(F)cc2c(=O)c(C(=O)O)cn(C3CC3)c12` (single isomer, unassigned; (-)) [Compound 20, (−)-1-Cyclopropyl-6-fluoro-1,4-dihydro-8-mehtoxy-7-(4-amino-3,3-dimethyl-1-piperidinyl)-4-oxo-quinoline-3-carboxylic acid] as the compound, how does the “MIC, Cipro^R S. sanguis 941” value [1] read?
Answer: The value was 0.4 µg/mL (≈ 0.991 µM).

Question: What about the “MIC, FQ^R S. pneumoniae 718” value [1] of the same compound?
Answer: Its value is 0.8 µg/mL (≈ 1.98 µM).

Question: What about the “MIC, MRSA 032” value [1] of the same compound?
Answer: The value was 0.8 µg/mL (≈ 1.98 µM).

Question: What about the “MIC, E. coli ATCC 25922” value [2] of the same compound?
Answer: Its value is 0.2 µg/mL (≈ 0.496 µM).

Question: What about the phototoxic dose [4] of the same compound?
Answer: Its phototoxic dose is “greater than 500 mg/kg”.

Question: What about the “ED50 p.o. MDR S. pneumoniae 718” value [6] of the same compound?
Answer: Its value is 50 mg/kg.

Question: For `COc1c(N2CCC(NC(=O)OC(C)(C)C)C(C)(C)C2)c(F)cc2c(=O)c(C(=O)O)cn(C3CC3)c12` (stereo not drawn) [Compound 23, 1-Cyclopropyl-6-fluoro-1,4-dihydro-8-methoxy-7-(4-t-butyloxycarbonylamino-3,3-dimethyl-1-piperidinyl)-4-oxo-quinoline-3-carboxylic acid], which melting point is on record?
Answer: Its melting point is 218 to 220 °C.
